# According to patent US8722676B2, “Bicyclic piperazine compounds” (Genentech, Inc., priority 2011, dated 2014):
# System: production of CD69 by B lymphocytes in human whole blood activated with goat F(ab')2 anti-human IgM
# Assay: CD69 Whole Blood Assay (CD69 Hu Blood FACS)
# Format: cell-based
# Conditions: anti-IgM stimulated, 20 hour incubation, CD69+ of CD20+ cells
# Source text: A CD69 Whole Blood Assay can be conducted on Formula I compounds to determine the ability of compounds to inhibit the production of CD69 by B lymphocytes in human whole blood activated by crosslinking surface IgM with goat F(ab′)2 anti-human IgM (Example 907). CD69 is a type II C-type lectin involved in lymphocyte migration and cytokine secretion. CD69 expression represents one of the earliest available indicators of leukocyte activation and its rapid induction occurs through transcriptional activation (Vazquez et al (2009) Jour. of Immunology Published Oct. 19, 2009, doi:10.4049/jimmunol.0900839). Concentration-dependent inhibition of antigen receptor stimulation by selective Btk inhibitors induces cell surface expression of the lymphocyte activation marker CD69 (Honigberg et al (2010) Proc. Natl. Acad. Sci. 107(29):13075-13080). Thus, CD69 inhibition by selective Btk inhibitors may be correlated with therapeutic efficacy of certain B-cell disorders.
# Human blood is obtained from healthy volunteers, with the following restrictions: 1 week drug-free, non-smokers. Blood (approximately 20 mls to test 8 compounds) is collected by venipuncture into Vacutainer® (Becton, Dickinson and Co.) tubes with sodium heparin.
# Solutions of Formula I compounds at 10 mM in DMSO are diluted 1:10 in 100% DMSO, then are diluted by three-fold serial dilutions in 100% DMSO for a ten point dose-response curve. The compounds are further diluted 1:10 in PBS and then an aliquot of 5.5 μl of each compound is added in duplicate to a 2 ml 96-well plate; 5.5 μl of 10% DMSO in PBS is added as control and no-stimulus wells. Human whole blood—HWB (100 μl) is added to each well. After mixing the plates are incubated at 37° C., 5% CO2, 100% humidity for 30 minutes. Goat F(ab′)2 anti-human IgM (10 μl of a 500 μg/ml solution, 50 μg/ml final) is added to each well (except the no-stimulus wells) with mixing and the plates are incubated for an additional 20 hours. At the end of the 20 hour incubation, samples are incubated with fluorescent labeled antibodies for 30 minutes, at 37° C., 5% CO2, 100% humidity. Include induced control, unstained and single stains for compensation adjustments and initial voltage settings. Samples are then lysed with PharM Lyse™ (BD Biosciences Pharmingen) according to the manufacturer's instructions. Samples are then transferred to a 96 well plate suitable to be run on the BD Biosciences HTS 96 well system on the LSRII machine. Data acquired and Mean Fluorescence Intensity values were obtained using BD Biosciences DIVA Software. Results are initially analyzed by FACS analysis software (Flow Jo).
SMILES,CD69 Hu Blood FACS IC70 (Table 1),CD69 Hu Blood FACS IC70 (Table 2)
"CN1CCN(c2ccc(Nc3cc(-c4cc(F)cc(N5CCn6c(cc7c6CCCC7)C5=O)c4CO)cn4ccnc34)nc2)CC1 [Compound 101, 2-(5-Fluoro-2-(hydroxymethyl)-3-(8-(5-(4-methylpiperazin-1-yl)pyridin-2-ylamino)imidazo[1,2-a]pyridin-6-yl)phenyl)-3,4,6,7,8,9-hexahydropyrazino[1,2-a]indol-1(2H)-one]",0.007 µM,–
"O=C1c2cc3c(n2CCN1c1cc(F)cc(-c2cc(Nc4ccc(N5CCN(C6COC6)CC5)cn4)c4nccn4c2)c1CO)CCCC3 [Compound 102, 2-(5-Fluoro-2-(hydroxymethyl)-3-(8-(5-(4-(oxetan-3-yl)piperazine-1-yl)pyridine-2-ylamino)imidazo[1,2-a]pyridin-6-yl)phenyl)-3,4,6,7,8,9-hexahydro-pyrazino[1,2-a]indol-1(2H)-one]",0.011 µM,–
"CN1CCN(c2ccc(Nc3cc(-c4cc(F)cc(N5CCc6c(sc7c6CCCC7)C5=O)c4CO)cn4ccnc34)nc2)CC1 [Compound 103, 5-[5-Fluoro-2-(hydroxymethyl)-3-{(8-(5-(4-methylpiperazin-1-yl)pyridine-2-ylamino)imidazo[1,2-a]pyridin-6-yl)}phenyl]-8-thia-5-azatricyclo[7.4.0.0^2,7]trideca-1(9),2(7)-dien-6-one]",0.319 µM,–
"CN1CCN(c2ccc(Nc3cc(-c4cc(F)cc(N5CCn6c(cc7c6CCCC7)C5=O)c4CO)nn4ccnc34)nc2)CC1 [Compound 104, 2-(5-Fluoro-2-(hydroxymethyl)-3-(8-(5-(4-methylpiperazin-1-yl)pyridin-2-ylamino)imidazo[1,2-b]pyridazin-6-yl)phenyl)-3,4,6,7,8,9-hexahydropyrazino[1,2-a]indol-1(2H)-one]",0.096 µM,–
"O=C1c2cc3c(n2CCN1c1cc(F)cc(-c2cc(Nc4ccc(N5CCN(C6COC6)CC5)cn4)c4nccn4n2)c1CO)CCCC3 [Compound 105, 2-(5-Fluoro-2-(hydroxymethyl)-3-(8-(5-(4-(oxetan-3-yl)piperazin-1-yl)pyridin-2-ylamino)imidazo[1,2-b]pyridazin-6-yl)phenyl)-3,4,6,7,8,9-hexahydro-pyrazino[1,2-a]indol-1(2H)-one]",0.049 µM,–
"CN1CCN(c2ccc(Nc3nc(-c4cc(F)cc(N5CCn6c(cc7c6CCCC7)C5=O)c4CO)cn4ccnc34)nc2)CC1 [Compound 106, 2-(5-Fluoro-2-(hydroxymethyl)-3-(8-(5-(4-methylpiperazin-1-yl)pyridin-2-ylamino)imidazo[1,2-a]pyrazin-6-yl)phenyl)-3,4,6,7,8,9-hexahydropyrazino[1,2-a]indol-1(2H)-one]",0.814 µM,–
"O=C1c2cc3c(n2CCN1c1cc(F)cc(-c2cn4ccnc4c(Nc4ccc(N5CCN(C6COC6)CC5)cn4)n2)c1CO)CCCC3 [Compound 107, 2-(5-Fluoro-2-(hydroxymethyl)-3-(8-(5-(4-(oxetan-3-yl)piperazin-1-yl)pyridin-2-ylamino)imidazo[1,2-a]pyrazin-6-yl)phenyl)-3,4,6,7,8,9-hexahydro-pyrazino[1,2-a]indol-1(2H)-one]",0.939 µM,–
"O=C1c2cc3c(n2CCN1c1cc(F)cc(-c2cc(Nc4ccc(N5CCN(C6COC6)CC5)cn4)c4ncnn4c2)c1CO)CCCC3 [Compound 108, 2-(5-Fluoro-2-(hydroxymethyl)-3-(8-(5-(4-(oxetan-3-yl)piperazin-1-yl)pyridin-2-ylamino)-[1,2,4]triazolo[1,5-a]pyridin-6-yl)phenyl)-3,4,6,7,8,9-hexahydropyrazino[1,2-a]indol-1(2H)-one]",0.058 µM,–
"Cn1cnc2c(Nc3ccc(N4CCN(C5COC5)CC4)cn3)cc(-c3cc(F)cc(N4CCn5c(cc6c5CCCC6)C4=O)c3CO)cc21 [Compound 109, 2-(5-Fluoro-2-(hydroxymethyl)-3-(3-methyl-7-(5-(4-(oxetan-3-yl)piperazin-1-yl)pyridin-2-ylamino)-3H-benzo[d]imidazol-5-yl)phenyl)-3,4,6,7,8,9-hexahydropyrazino[1,2-a]indol-1(2H)-one]",1.3 µM,–
"CC1(C)Cc2cc3n(c2C1)CCN(c1cc(F)cc(-c2cc(Nc4ccc(N5CCN(C6COC6)CC5)cn4)c4nccn4n2)c1CO)C3=O [Compound 110, 10-[5-Fluoro-2-(hydroxymethyl)-3-(8-(5-(4-(oxetan-3-yl)piperazin-1-yl)pyridin-2-ylamino)imidazo[1,2-b]pyridazin-6-yl)phenyl]-4,4-dimethyl-1,10-diazatricyclo[6.4.0.0^2,6]dodeca-2(6),7-dien-9-one]",0.015 µM,–
"O=C1c2sc3c(c2CCN1c1cc(F)cc(-c2cc(Nc4ccc(N5CCN(C6COC6)CC5)cn4)c4nccn4n2)c1CO)CCCC3 [Compound 111, 5-[5-Fluoro-2-(hydroxymethyl)-3-(8-(5-(4-(oxetan-3-yl)piperazin-1-yl)pyridin-2-ylamino)imidazo[1,2-b]pyridazin-6-yl)phenyl]-8-thia-5-azatricyclo[7.4.0.0^2,7]trideca-1(9),2(7)-dien-6-one]",0.313 µM,–
"O=c1c2sc3c(c2cnn1-c1cc(F)cc(-c2cc(Nc4ccc(N5CCN(C6COC6)CC5)cn4)c4nccn4n2)c1CO)CCCC3 [Compound 112, 5-[5-Fluoro-2-(hydroxymethyl)-3-(8-(5-(4-(oxetan-3-yl)piperazin-1-yl)pyridin-2-ylamino)imidazo[1,2-b]pyridazin-6-yl)phenyl]-8-thia-4,5-diazatricyclo-[7.4.0.0^2,7]trideca-1(9),2(7),3-trien-6-one]",0.126 µM,–
"CC1(C)Cc2sc3c(c2C1)CCN(c1cc(F)cc(-c2cc(Nc4ccc(N5CCN(C6COC6)CC5)cn4)c4nccn4n2)c1CO)C3=O [Compound 113, 10-[5-Fluoro-2-(hydroxymethyl)-3-(8-(5-(4-(oxetan-3-yl)piperazin-1-yl)pyridine-2-ylamino)imidazo[1,2-b]pyridazin-6-yl)phenyl]-4,4-dimethyl-7-thia-10-azatricyclo[6.4.0.0^2,6]dodeca-1(8),2(6)-dien-9-one]",0.012 µM,–
"O=C1c2cc3c(n2CCN1c1nccc(-c2cc(Nc4ccc(N5CCN(C6COC6)CC5)cn4)c4nccn4n2)c1CO)CCCC3 [Compound 114, 2-(3-(Hydroxymethyl)-4-(8-(5-(4-(oxetan-3-yl)piperazin-1-yl)pyridin-2-ylamino)imidazo[1,2-b]pyridazin-6-yl)pyridin-2-yl)-3,4,6,7,8,9-hexahydropyrazino[1,2-a]indol-1(2H)-one]",0.118 µM,–
"O=C1c2cc3c(n2CCN1c1cc(F)cc(-c2cc(Nc4ccc(N5CCN(C6COC6)CC5)cn4)c4nc[nH]c4c2)c1CO)CCCC3 [Compound 116, 2-[5-fluoro-2-(hydroxymethyl)-3-[7-[[5-[4-(oxetan-3-yl)piperazin-1-yl]-2-pyridyl]amino]-3H-benzimidazol-5-yl]phenyl]-3,4,6,7,8,9-hexahydropyrazino[1,2-a]indol-1-one]",–,1.3 µM
"O=C1c2cc3c(n2CCN1c1cc(F)cc(-c2nc(Nc4ccc(N5CCN(C6COC6)CC5)cc4)c4nc[nH]c4n2)c1CO)CCCC3 [Compound 117, 2-[5-fluoro-2-(hydroxymethyl)-3-[6-[4-[4-(oxetan-3-yl)piperazin-1-yl]anilino]-9H-purin-2-yl]phenyl]-3,4,6,7,8,9-hexahydropyrazino[1,2-a]indol-1-one]",–,0.812 µM
"O=C1c2cc3c(n2CCN1c1nccc(-c2cc(Nc4ccc(N5CCN(C6COC6)CC5)cn4)c4nc[nH]c4c2)c1CO)CCCC3 [Compound 118, 2-[3-(hydroxymethyl)-4-[7-[[5-[4-(oxetan-3-yl)piperazin-1-yl]-2-pyridyl]amino]-3H-benzimidazol-5-yl]-2-pyridyl]-3,4,6,7,8,9-hexahydropyrazino[1,2-a]indol-1-one]",–,4.3 µM
"O=C1c2sc3c(c2CCN1c1cc(F)cc(-c2nc(Nc4ccc(N5CCN(C6COC6)CC5)cc4)c4nc[nH]c4n2)c1CO)CCCC3 [Compound 119, 2-[5-fluoro-2-(hydroxymethyl)-3-[6-[4-[4-(oxetan-3-yl)piperazin-1-yl]anilino]-9H-purin-2-yl]phenyl]-3,4,5,6,7,8-hexahydrobenzothiopheno[2,3-c]pyridin-1-one]",–,0.727 µM
"O=C1c2cc3n(c2CCN1c1cc(F)cc(-c2nc(Nc4ccc(N5CCN(C6COC6)CC5)cc4)c4nc[nH]c4n2)c1CO)CCCC3 [Compound 120, 2-[5-fluoro-2-(hydroxymethyl)-3-[6-[4-[4-(oxetan-3-yl)piperazin-1-yl]anilino]-9H-purin-2-yl]phenyl]-3,4,6,7,8,9-hexahydropyrido[3,4-b]indolizin-1-one]",–,1.9 µM
